Some results are limits rather than exact numbers.

This assay deals with ALK2 (Homo sapiens (Human), UniProt Q04771). As to the kind of experiment: ALK2 inhibition, LanthaScreen Eu Kinase Binding Assay (ThermoFisher Scientific / Life Technologies). Conditions: read-out: Measured Ki (IC50) Value for Compounds: IC50. How it is done: Biochemical assays to measure the inhibitory effects of the compounds were performed by ThermoFisher Scientific (Life Technologies). ALK2 inhibition was tested using LanthaScreen™ Eu Kinase Binding Assay screening protocol.
ALK2, sequence (Q04771 21-509): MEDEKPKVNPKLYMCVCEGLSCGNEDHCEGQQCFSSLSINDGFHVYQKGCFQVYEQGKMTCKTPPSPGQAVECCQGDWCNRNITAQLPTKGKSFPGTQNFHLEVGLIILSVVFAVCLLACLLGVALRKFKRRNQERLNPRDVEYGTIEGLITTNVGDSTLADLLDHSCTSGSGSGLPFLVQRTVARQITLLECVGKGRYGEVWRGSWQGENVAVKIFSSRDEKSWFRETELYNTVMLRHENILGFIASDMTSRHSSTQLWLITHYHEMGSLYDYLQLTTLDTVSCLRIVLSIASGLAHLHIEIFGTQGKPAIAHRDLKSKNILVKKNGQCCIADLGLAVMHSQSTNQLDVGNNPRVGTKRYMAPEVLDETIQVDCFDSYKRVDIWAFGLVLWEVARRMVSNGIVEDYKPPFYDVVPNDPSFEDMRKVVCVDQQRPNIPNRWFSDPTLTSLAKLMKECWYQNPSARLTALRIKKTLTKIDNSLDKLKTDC
For `COc1cc(-n2cnc(Nc3nc(N4CCC[C@H]4C(N)=O)c4c(ccn4S(=O)(=O)c4ccc(C)cc4)n3)c2)cc(OC)c1OC` [Compound 191b, (S)-1-(5-tosyl-2-((1-(3,4,5-trimethoxyphenyl)-1H-imidazol-4-yl)amino)-5H-pyrrolo[3,2-d]pyrimidin-4-yl)pyrrolidine-2-carboxamide], the IC50 (in general, the concentration needed to halve the response being measured) is less than 100 nM. `COc1cc(-n2cnc(Nc3nc(N4CCC[C@H]4C(N)=O)c4[nH]ccc4n3)c2)cc(OC)c1OC` [Compound 191c, (S)-1-(2-((1-(3,4,5-trimethoxyphenyl)-1H-imidazol-4-yl)amino)-5H-pyrrolo[3,2-d]pyrimidin-4-yl)pyrrolidine-2-carboxamide]: the IC50 is less than 100 nM. For the molecule `COc1cc(-n2cnc(Nc3nc(N4CCCC4)c4cccnc4n3)c2)cc(OC)c1OC` [Compound 192b, 4-(pyrrolidin-1-yl)-N-(1-(3,4,5-trimethoxyphenyl)-1H-imidazol-4-yl)pyrido[2,3-d]pyrimidin-2-amine], the IC50 was less than 100 nM. For the molecule `COc1cc(-n2cnc(Nc3nc4c(c(N5CCC[C@H]5C(N)=O)n3)CNCC4)c2)cc(OC)c1OC` [Compound 193c, (S)-1-(2-((1-(3,4,5-trimethoxyphenyl)-1H-imidazol-4-yl)amino)-5,6,7,8-tetrahydropyrido[4,3-d]pyrimidin-4-yl)pyrrolidine-2-carboxamide], the IC50 was less than 100 nM. As for `COc1cc(-n2cnc(Nc3nc4c(c(N5CCC[C@H]5C(N)=O)n3)CCNC4)c2)cc(OC)c1OC` [Compound 194c, (S)-1-(2-((1-(3,4,5-trimethoxyphenyl)-1H-imidazol-4-yl)amino)-5,6,7,8-tetrahydropyrido[3,4-d]pyrimidin-4-yl)pyrrolidine-2-carboxamide], the IC50 was less than 100 nM. `COc1cc(-n2cnc(Nc3cc4ccccc4cn3)c2)cc(OC)c1OC` [Compound 195b, N-(1-(3,4,5-trimethoxyphenyl)-1H-imidazol-4-yl)isoquinolin-3-amine]: the IC50 was less than 100 nM. As for `COc1cc(-n2cnc(Nc3nc(N4CCC[C@H]4C(N)=O)c4ncsc4n3)c2)cc(OC)c1OC` [Compound 196b, (S)-1-(5-((1-(3,4,5-trimethoxyphenyl)-1H-imidazol-4-yl)amino)thiazolo[5,4-d]pyrimidin-7-yl)pyrrolidine-2-carboxamide], the IC50 is less than 100 nM.

As to `COc1cc(-n2cnc(Nc3nc(N4CCCC4)nc4scnc34)c2)cc(OC)c1OC` [Compound 197a, 5-(pyrrolidin-1-yl)-N-(1-(3,4,5-trimethoxyphenyl)-1H-imidazol-4-yl)thiazolo[5,4-d]pyrimidin-7-amine], the IC50 is less than 100 nM. On to `COc1cc(-n2cnc(Nc3ncc4ccccc4n3)c2)cc(OC)c1OC` [Compound 198b, N-(1-(3,4,5-trimethoxyphenyl)-1H-imidazol-4-yl)quinazolin-2-amine], for which the half-inhibitory concentration (IC50) was in the range of 100 to 1000 nM. Consider `COc1cc(-n2cnc(Nc3nc(N4CCCC4)c4c(ccn4S(=O)(=O)c4ccc(C)cc4)n3)c2)cc(OC)c1OC` [Compound 199b, 4-(pyrrolidin-1-yl)-5-tosyl-N-(1-(3,4,5-trimethoxyphenyl)-1H-imidazol-4-yl)-5H-pyrrolo[3,2-d]pyrimidin-2-amine], for which the 50% inhibitory concentration (IC50) was greater than 1000 nM. As for `COc1cc(-n2cnc(Nc3nc(N4CCC[C@H]4CO)c4cccc(OC(C)C)c4n3)c2)cc(OC)c1OC` [Compound 200b, (S)-(1-(8-isopropoxy-2-((1-(3,4,5-trimethoxyphenyl)-1H-imidazol-4-yl)amino)quinazolin-4-yl)pyrrolidin-2-yl)methanol], the IC50 is less than 100 nM. In the case of `COc1cc(-n2cnc(Nc3ncc4c(n3)CCN(Cc3ccccc3)C4)c2)cc(OC)c1OC` [Compound 201b, 6-benzyl-N-(1-(3,4,5-trimethoxyphenyl)-1H-imidazol-4-yl)-5,6,7,8-tetrahydropyrido[4,3-d]pyrimidin-2-amine], the IC50 was less than 100 nM. `COc1cc(-n2cnc(Nc3ncc4c(n3)CN(Cc3ccccc3)CC4)c2)cc(OC)c1OC` [Compound 202b, 7-benzyl-N-(1-(3,4,5-trimethoxyphenyl)-1H-imidazol-4-yl)-5,6,7,8-tetrahydropyrido[3,4-d]pyrimidin-2-amine]: the IC50 was less than 100 nM. For `COc1cc(-n2cnc(Nc3nc(N4CCC[C@H]4C(N)=O)c4cccnc4n3)c2)cc(OC)c1OC` [Compound 203b, (S)-1-(2-((1-(3,4,5-trimethoxyphenyl)-1H-imidazol-4-yl)amino)pyrido[2,3-d]pyrimidin-4-yl)pyrrolidine-2-carboxamide], the half-inhibitory concentration (IC50) was 100 to 1000 nM. As to `COc1cc(-n2cnc(Nc3nc(N4CCC[C@H]4C(N)=O)c4ccccc4n3)c2)cc(OC)c1OC` [Compound 204b, (S)-1-(2-((1-(3,4,5-trimethoxyphenyl)-1H-imidazol-4-yl)amino)quinazolin-4-yl)pyrrolidine-2-carboxamide], the IC50 lay in the range of 100 to 1000 nM. As for `COc1cc(-n2cnc(Nc3nc(N4CCC[C@H]4C(N)=O)c4cccc(OC(C)C)c4n3)c2)cc(OC)c1OC` [Compound 205b, (S)-1-(8-isopropoxy-2-((1-(3,4,5-trimethoxyphenyl)-1H-imidazol-4-yl)amino)quinazolin-4-yl)pyrrolidine-2-carboxamide], the IC50 fell in the range of 100 to 1000 nM.

Turning to `COc1cc(-n2cnc(Nc3nc(N4CCC[C@H]4C(F)(F)F)c4cccn4n3)c2)cc(OC)c1OC` [Compound 206b, (S)-4-(2-(trifluoromethyl)pyrrolidin-1-yl)-N-(1-(3,4,5-trimethoxyphenyl)-1H-imidazol-4-yl)pyrrolo[2,1-f][1,2,4]triazin-2-amine], the 50% inhibitory concentration (IC50) is less than 100 nM. With `COc1cc(-n2cnc(Nc3nc(N4CCCC4)c4sccc4n3)c2)cc(OC)c1OC` [Compound 207b, 4-(pyrrolidin-1-yl)-N-(1-(3,4,5-trimethoxyphenyl)-1H-imidazol-4-yl)thieno[3,2-d]pyrimidin-2-amine] the figure was less than 100 nM; with `COc1cc(-n2cnc(Nc3ccc4ccc(Nc5cn(-c6cc(OC)c(OC)c(OC)c6)cn5)cc4c3)c2)cc(OC)c1OC` [Compound 208b, N^2,N^7-bis(1-(3,4,5-trimethoxyphenyl)-1H-imidazol-4-yl)naphthalene-2,7-diamine], less than 100 nM. For `COc1cc(-n2cnc(Nc3nc(N4CC[C@@H](O)C4)c4cccn4n3)c2)cc(OC)c1OC` [Compound 209b, (R)-1-(2-((1-(3,4,5-trimethoxyphenyl)-1H-imidazol-4-yl)amino)pyrrolo[2,1-f][1,2,4]triazin-4-yl)pyrrolidin-3-ol], the IC50 is less than 100 nM. With `COc1cc(-n2cnc(Nc3nc(N4CCC[C@@H]4C(N)=O)nn4cccc34)c2)cc(OC)c1OC` [Compound 210a, (R)-1-(4-((1-(3,4,5-trimethoxyphenyl)-1H-imidazol-4-yl)amino)pyrrolo[2,1-f][1,2,4]triazin-2-yl)pyrrolidine-2-carboxamide], the concentration for half-maximal inhibition (IC50) was less than 100 nM. Regarding `COc1cc(-n2cnc(Nc3nc(N4CC[C@H](O)C4)c4cccn4n3)c2)cc(OC)c1OC` [Compound 211b, (S)-1-(2-((1-(3,4,5-trimethoxyphenyl)-1H-imidazol-4-yl)amino)pyrrolo[2,1-f][1,2,4]triazin-4-yl)pyrrolidin-3-ol], the half-maximal inhibitory concentration (IC50) was less than 100 nM. The same measure for `COc1c(C(C)=O)ccc(-n2cnc(Nc3nc(N4CCC[C@H]4CO)nn4cccc34)c2)c1OC` [Compound 212g, (S)-1-(4-(4-((2-(2-(hydroxymethyl)pyrrolidin-1-yl)pyrrolo[2,1-f][1,2,4]triazin-4-yl)amino)-1H-imidazol-1-yl)-2,3-dimethoxyphenyl)ethanone]: less than 100 nM; for `COc1cc(-n2cnc(Nc3nc4c(c(N5CCC[C@H]5C(N)=O)n3)CN(Cc3ccccc3)CC4)c2)cc(OC)c1OC` [Compound 213b, (S)-1-(6-benzyl-2-((1-(3,4,5-trimethoxyphenyl)-1H-imidazol-4-yl)amino)-5,6,7,8-tetrahydropyrido[4,3-d]pyrimidin-4-yl)pyrrolidine-2-carboxamide]: less than 100 nM; for `COc1cc(-n2cnc(Nc3nc(N4C[C@H](O)C[C@H]4CO)c4cccn4n3)c2)cc(OC)c1OC` [Compound 214b, (3R,5S)-5-(hydroxymethyl)-1-(2-((1-(3,4,5-trimethoxyphenyl)-1H-imidazol-4-yl)amino)pyrrolo[2,1-f][1,2,4]triazin-4-yl)pyrrolidin-3-ol]: less than 100 nM. In the case of `COc1cc(-n2cnc(Nc3nc4c(c(N5CCC[C@H]5CO)n3)CCN(Cc3ccc(C(F)(F)F)cc3)C4)c2)cc(OC)c1OC` [Compound 215a, (S)-(1-(7-(4-(trifluoromethyl)benzyl)-2-((1-(3,4,5-trimethoxyphenyl)-1H-imidazol-4-yl)amino)-5,6,7,8-tetrahydropyrido[3,4-d]pyrimidin-4-yl)pyrrolidin-2-yl)methanol], the 50% inhibitory concentration (IC50) is less than 100 nM. As for `COc1cc(-n2cnc(Nc3nc4c(c(N5CCC[C@H]5CO)n3)CCN(Cc3cccnc3)C4)c2)cc(OC)c1OC` [Compound 216a, (S)-(1-(7-(pyridin-3-ylmethyl)-2-((1-(3,4,5-trimethoxyphenyl)-1H-imidazol-4-yl)amino)-5,6,7,8-tetrahydropyrido[3,4-d]pyrimidin-4-yl)pyrrolidin-2-yl)methanol], the concentration for half-maximal inhibition (IC50) is less than 100 nM.

Regarding `COc1cc(-n2cnc(Nc3nc4c(c(N5CCC[C@H]5CO)n3)CCN(Cc3cccc(OC(F)(F)F)c3)C4)c2)cc(OC)c1OC` [Compound 217a, (S)-(1-(7-(3-(trifluoromethoxy)benzyl)-2-((1-(3,4,5-trimethoxyphenyl)-1H-imidazol-4-yl)amino)-5,6,7,8-tetrahydropyrido[3,4-d]pyrimidin-4-yl)pyrrolidin-2-yl)methanol], the IC50 was less than 100 nM. Regarding `COc1cc(-n2cnc(Nc3nc4c(c(N5CCC[C@H]5CO)n3)CCN(CC(N)=O)C4)c2)cc(OC)c1OC` [Compound 218a, (S)-2-(4-(2-(hydroxymethyl)pyrrolidin-1-yl)-2-((1-(3,4,5-trimethoxyphenyl)-1H-imidazol-4-yl)amino)-5,6-dihydropyrido[3,4-d]pyrimidin-7(8H)-yl)acetamide], the IC50 was less than 100 nM.

For the origin of these results see patent US11661426B2, “Imidazole-containing inhibitors of ALK2 kinase” (BioCryst Pharmaceuticals, Inc., priority 2017, dated 2023).
